# Assay results reported in BindingDB's records for doi:10.1021/jm960596u (National Cancer Institute-Bethesda, 1997).
# Columns and labels:
# Integrase [1] = molecular target: T1, Integrase (Human immunodeficiency virus 1, UniProt Q7ZJM1); experiment: Inhibitory concentration to inhibit HIV-1 integrase by 3' -processing method
# Integrase [2] = molecular target: T1, Integrase; experiment: Inhibitory concentration against HIV-1 integrase by strand transfer method
# T1 sequence (Q7ZJM1 whole entry): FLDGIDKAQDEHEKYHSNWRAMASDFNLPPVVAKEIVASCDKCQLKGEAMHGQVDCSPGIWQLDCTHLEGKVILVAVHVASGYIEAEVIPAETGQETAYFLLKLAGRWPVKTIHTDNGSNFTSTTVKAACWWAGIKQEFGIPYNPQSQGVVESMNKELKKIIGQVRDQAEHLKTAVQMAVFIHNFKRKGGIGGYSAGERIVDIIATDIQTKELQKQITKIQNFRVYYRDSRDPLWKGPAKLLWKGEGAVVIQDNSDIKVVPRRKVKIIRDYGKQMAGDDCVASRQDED
SMILES,IC50 (Integrase [1]),IC50 (Integrase [2])
Cc1[nH]n(-c2ccccc2)c(=O)c1N=Nc1ccc(S(N)(=O)=O)cc1,> 200 µM,> 200 µM
"CCC(=O)CC=c1[nH]c2nnc(CCCCc3nnc4[nH]c(=CCC(=O)CC)c(=O)n34)n2c1=O [1-(5-oxo-3-{4-[5-oxo-6-(3-oxopentyl)-5H-imidazo[2,1-c][1,2,4]triazol-3-yl]butyl}-5H-imidazo[2,1-c][1,2,4]triazol-6-yl)-3-pentanone]",> 200 µM,> 200 µM
"CC1=C(N)C(=NNc2ccc(S(=O)(=O)Nc3cc(C)nc(C)n3)cc2)C(=O)C(C)C1=O (stereo not given) [4-(2-Amino-3,5-dimethyl-4,6-dioxo-cyclohex-1-enylazo)-N-(2,6-dimethyl-pyrimidin-4-yl)-benzenesulfonamide]",> 200 µM,> 200 µM
"CC1=C(N)C(=NNc2ccc(S(=O)(=O)Nc3scc(C)c3C)cc2)C(=O)C(C)C1=O (stereo not given) [4-(2-Amino-3,5-dimethyl-4,6-dioxo-cyclohex-1-enylazo)-N-(3,4-dimethyl-thiophen-2-yl)-benzenesulfonamide]",> 200 µM,> 200 µM
"CC1=C(N)C(=NNc2ccc(S(=O)(=O)Nc3nccc(C)n3)cc2)C(=O)C(C)C1=O (stereo not given) [4-(2-Amino-3,5-dimethyl-4,6-dioxo-cyclohex-1-enylazo)-N-(4-methyl-pyrimidin-2-yl)-benzenesulfonamide]",> 200 µM,> 200 µM
"CC1=C(N)C(=NNc2ccc(S(=O)(=O)Nc3nnc(C)s3)cc2)C(=O)C(C)C1=O (stereo not given) [4-(2-Amino-3,5-dimethyl-4,6-dioxo-cyclohex-1-enylazo)-N-(5-methyl-[1,3,4]thiadiazol-2-yl)-benzenesulfonamide]",> 200 µM,> 200 µM
"CC1=C(N)C(=NNc2ccc(S(=O)(=O)Nc3ccccn3)cc2)C(=O)C(C)C1=O (stereo not given) [4-(2-Amino-3,5-dimethyl-4,6-dioxo-cyclohex-1-enylazo)-N-pyridin-2-yl-benzenesulfonamide]",> 200 µM,> 200 µM
"CC1=C(N)C(=NNc2ccc(S(=O)(=O)Nc3ncccn3)cc2)C(=O)C(C)C1=O (stereo not given) [4-(2-Amino-3,5-dimethyl-4,6-dioxo-cyclohex-1-enylazo)-N-pyrimidin-2-yl-benzenesulfonamide]",> 200 µM,> 200 µM
"CC1=C(N)C(=NNc2ccc(S(=O)(=O)Nc3nccs3)cc2)C(=O)C(C)C1=O (stereo not given) [4-(2-Amino-3,5-dimethyl-4,6-dioxo-cyclohex-1-enylazo)-N-thiazol-2-yl-benzenesulfonamide]",> 200 µM,> 200 µM
"Cc1[nH]n(-c2ccccc2)c(=O)c1N=Nc1ccc(S(=O)(=O)Nc2ccccn2)cc1 [4-(3-Methyl-5-oxo-1-phenyl-4,5-dihydro-1H-pyrazol-4-ylazo)-N-pyridin-2-yl-benzenesulfonamide]",> 200 µM,> 200 µM
"Cc1[nH]n(-c2ccccc2)c(=O)c1N=Nc1ccc(S(=O)(=O)Nc2ncccn2)cc1 [4-(3-Methyl-5-oxo-1-phenyl-4,5-dihydro-1H-pyrazol-4-ylazo)-N-pyrimidin-2-yl-benzenesulfonamide]",> 200 µM,> 200 µM
"NS(=O)(=O)c1ccc(NN=C2Sc3nc4ccccc4n3C2=O)cc1 [4-(3-Oxo-2,3-dihydro-benzo[4,5]imidazo[2,1-b]thiazol-2-ylazo)-benzenesulfonamide]",> 200 µM,> 200 µM
"NS(=O)(=O)c1ccc(N=Cc2c(O)n(-c3ccccc3)n(-c3ccccc3)c2=O)cc1 [4-[(3,5-Dioxo-1,2-diphenyl-pyrazolidin-4-ylidenemethyl)-amino]-benzenesulfonamide]",> 200 µM,> 200 µM
"NS(=O)(=O)c1ccc(N=Nc2c(O)n(-c3ccccc3)n(-c3ccccc3)c2=O)cc1 [4-[N'-(3,5-Dioxo-1,2-diphenyl-pyrazolidin-4-ylidene)-hydrazino]-benzenesulfonamide]",> 200 µM,> 200 µM
"Cc1cc(NS(=O)(=O)c2ccc(N=Nc3c(C)[nH]n(-c4ccccc4)c3=O)cc2)nc(C)n1 [N-(2,6-Dimethyl-pyrimidin-4-yl)-4-(3-methyl-5-oxo-1-phenyl-4,5-dihydro-1H-pyrazol-4-ylazo)-benzenesulfonamide]",> 200 µM,> 200 µM
